Results from ChEMBL document CHEMBL5154889, “Development of Novel IP6K Inhibitors for the Treatment of Obesity and Obesity-Induced Metabolic Dysfunctions” (J Med Chem, 2022).
Active and inactive are the calls of the source. The rule behind the calls is not given here.

Legend:
[1] = target: T1, Inositol hexakisphosphate kinase 3 (Homo sapiens, UniProt Q96PC2); test: Inhibition of N-terminal 6His-sumo-tagged recombinant human IP6K3 expressed in Escherichia coli assessed as inorganic phosphate release using InsP6 as substrate in presence of ATP measured after 60 to 120 mins by malachite green based colorimetric - DIPP1 coupled enzyme assay
T1 sequence (Q96PC2 whole entry): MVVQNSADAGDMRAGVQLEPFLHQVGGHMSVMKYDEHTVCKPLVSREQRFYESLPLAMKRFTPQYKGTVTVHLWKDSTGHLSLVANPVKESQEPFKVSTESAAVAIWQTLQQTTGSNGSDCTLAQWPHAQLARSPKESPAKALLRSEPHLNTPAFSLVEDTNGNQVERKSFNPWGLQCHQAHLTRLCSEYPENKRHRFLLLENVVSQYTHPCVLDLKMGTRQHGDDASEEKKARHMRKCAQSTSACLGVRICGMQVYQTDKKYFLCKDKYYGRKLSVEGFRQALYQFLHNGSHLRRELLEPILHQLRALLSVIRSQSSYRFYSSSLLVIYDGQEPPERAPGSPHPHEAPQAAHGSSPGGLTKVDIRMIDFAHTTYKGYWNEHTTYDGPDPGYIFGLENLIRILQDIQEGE

[2] = AUClast in diet-induced obesity CD1 mouse at 5 mg/kg, ip measured up to 24 hrs post-dosing by LC-MS/MS analysis; assay type: ADME, organism-based; design: dose 5 mg/kg, time < 24 hrs, route ip; conditions: in vivo
[3] = target: Inositol-trisphosphate 3-kinase A (Homo sapiens) (UniProt P23677); test: Inhibition of N-terminal 6His-tagged/TEV cleavage site fused recombinant human IP3KA (173 to 461 residues) expressed in Escherichia coli using [3H]-Ins91,4,5)P3 as substrate measured after 60 mins by HPLC analysis
Chain of Inositol-trisphosphate 3-kinase A (Homo sapiens) (P23677 whole entry, the tested form may be a part): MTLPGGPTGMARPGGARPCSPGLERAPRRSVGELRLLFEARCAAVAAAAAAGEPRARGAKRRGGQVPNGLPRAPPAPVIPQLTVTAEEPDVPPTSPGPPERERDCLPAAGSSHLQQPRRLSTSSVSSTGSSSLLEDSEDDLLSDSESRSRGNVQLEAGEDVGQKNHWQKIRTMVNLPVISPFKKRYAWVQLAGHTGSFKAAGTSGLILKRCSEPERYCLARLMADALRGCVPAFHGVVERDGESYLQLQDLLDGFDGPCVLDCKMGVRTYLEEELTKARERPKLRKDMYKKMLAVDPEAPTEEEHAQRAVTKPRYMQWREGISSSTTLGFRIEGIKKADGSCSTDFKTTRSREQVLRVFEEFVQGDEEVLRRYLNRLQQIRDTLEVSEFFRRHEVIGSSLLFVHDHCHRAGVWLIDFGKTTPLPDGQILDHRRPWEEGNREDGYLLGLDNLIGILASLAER

Mus musculus [4] = test: Reduction in hepatic steatosis in C57BL6J mouse model of high fat diet-induced obesity at 2 mg/kg, ip administered for 4 weeks by H and E staining assay; assay type: functional, organism-based
Mus musculus [5] = test: Anti-diabetic activity in 16 hrs fasted C57BL6J mouse model of high fat diet-induced obesity assessed as improved blood glucose disposal at 2 mg/kg, ip administered for 3 weeks by insulin tolerance test; assay type: functional, organism-based
Mus musculus [6] = test: Anti-diabetic activity in 16 hrs fasted C57BL6J mouse model of high fat diet-induced obesity assessed as reduction in pyruvate-induced gluconeogenesis at 2 mg/kg, ip administered for 4 weeks by pyruvate tolerance test; assay type: functional, organism-based
Mus musculus [7] = test: Anti-obesity activity in high fat diet-induced obesity C57BL6J mouse model assessed as reduction in inguinal-adipose tissue weight at 5 mg/kg, ip administered for 4 weeks; assay type: functional, organism-based
[8] = AUClast in diet-induced obesity CD1 mouse model at 5 mg/kg, iv measured up to 24 hrs post-dosing by LC-MS/MS analysis; assay type: ADME, organism-based; design: dose 5 mg/kg, time < 24 hrs, route iv; conditions: in vivo
[9] = target: Death-associated protein kinase 1 (Homo sapiens) (UniProt P53355); test: Inhibition of DAPK1 (unknown origin) at 1 uM relative to control
Chain of Death-associated protein kinase 1 (Homo sapiens) (P53355 whole entry, looked up): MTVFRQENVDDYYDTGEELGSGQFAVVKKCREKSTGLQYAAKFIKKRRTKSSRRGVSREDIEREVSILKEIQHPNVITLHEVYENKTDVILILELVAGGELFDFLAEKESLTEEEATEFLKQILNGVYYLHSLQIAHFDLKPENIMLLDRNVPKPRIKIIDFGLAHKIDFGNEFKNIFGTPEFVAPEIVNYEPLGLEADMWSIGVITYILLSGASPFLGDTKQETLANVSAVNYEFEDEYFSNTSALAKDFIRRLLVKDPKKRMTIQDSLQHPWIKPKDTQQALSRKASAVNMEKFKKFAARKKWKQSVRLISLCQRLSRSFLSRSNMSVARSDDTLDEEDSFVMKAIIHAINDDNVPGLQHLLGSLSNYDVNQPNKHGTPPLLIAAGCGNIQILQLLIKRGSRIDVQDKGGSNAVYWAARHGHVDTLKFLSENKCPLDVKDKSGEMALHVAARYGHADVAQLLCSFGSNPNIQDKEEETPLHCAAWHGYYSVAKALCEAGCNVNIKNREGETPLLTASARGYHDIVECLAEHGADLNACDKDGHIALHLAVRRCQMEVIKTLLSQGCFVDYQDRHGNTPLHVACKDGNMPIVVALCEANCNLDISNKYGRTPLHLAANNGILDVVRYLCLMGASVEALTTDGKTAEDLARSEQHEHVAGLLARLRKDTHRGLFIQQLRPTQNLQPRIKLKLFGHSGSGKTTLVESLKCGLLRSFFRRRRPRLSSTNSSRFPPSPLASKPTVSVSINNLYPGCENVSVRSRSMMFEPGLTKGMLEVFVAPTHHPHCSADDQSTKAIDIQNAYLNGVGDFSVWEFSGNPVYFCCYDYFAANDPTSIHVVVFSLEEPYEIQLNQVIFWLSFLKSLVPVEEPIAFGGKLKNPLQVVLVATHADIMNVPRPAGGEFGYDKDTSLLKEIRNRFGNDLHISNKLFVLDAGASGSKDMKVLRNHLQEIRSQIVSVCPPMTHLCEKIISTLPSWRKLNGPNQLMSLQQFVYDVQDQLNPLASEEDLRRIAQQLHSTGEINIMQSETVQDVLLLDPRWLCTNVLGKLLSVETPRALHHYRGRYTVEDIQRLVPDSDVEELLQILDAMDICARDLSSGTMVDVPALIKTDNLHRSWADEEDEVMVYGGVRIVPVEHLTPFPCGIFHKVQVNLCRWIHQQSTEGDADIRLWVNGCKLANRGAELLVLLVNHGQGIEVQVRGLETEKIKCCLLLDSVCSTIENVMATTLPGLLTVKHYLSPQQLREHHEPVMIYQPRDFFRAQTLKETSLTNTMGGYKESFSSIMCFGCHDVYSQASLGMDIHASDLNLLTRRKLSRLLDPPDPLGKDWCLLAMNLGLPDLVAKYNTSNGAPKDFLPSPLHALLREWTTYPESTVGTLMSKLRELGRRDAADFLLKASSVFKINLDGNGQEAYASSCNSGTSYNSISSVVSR

Mus musculus [10] = test: Anti-diabetic activity in 5 hrs fasted C57BL6J mouse model of high fat diet-induced obesity assessed as improved blood glucose disposal at […], ip administered for 1 weeks by insulin tolerance test; assay type: functional, organism-based
Mus musculus [11] = test: Anti-obesity activity in high fat diet-induced obesity C57BL6J mouse model assessed as reduction in body weight at 5 mg/kg, ip administered for 4 weeks; assay type: functional, organism-based
Mus musculus [12] = test: Anti-obesity activity in high fat diet-induced obesity C57BL6J mouse model assessed as reduction in fat mass at 5 mg/kg, ip administered for 4 weeks; assay type: functional, organism-based
[13] = Clearance in diet-induced obesity CD1 mouse at 5 mg/kg, iv measured up to 24 hrs post-dosing by LC-MS/MS analysis; assay type: ADME, organism-based; conditions: in vivo
Mus musculus [14] = test: Anti-obesity activity in high fat diet-induced obesity C57BL6J mouse model assessed as reduction in epididymal-adipose tissue weight at 5 mg/kg, ip administered for 4 weeks; assay type: functional, organism-based
CYP2C9 = CYP2C9 (Homo sapiens, UniProt P11712); test: Inhibition of CYP2C9 in human liver microsomes at 10 uM in presence of NADPH by LC-MS/MS analysis; assay type: ADME, Microsome
Chain of CYP2C9 (P11712 whole entry): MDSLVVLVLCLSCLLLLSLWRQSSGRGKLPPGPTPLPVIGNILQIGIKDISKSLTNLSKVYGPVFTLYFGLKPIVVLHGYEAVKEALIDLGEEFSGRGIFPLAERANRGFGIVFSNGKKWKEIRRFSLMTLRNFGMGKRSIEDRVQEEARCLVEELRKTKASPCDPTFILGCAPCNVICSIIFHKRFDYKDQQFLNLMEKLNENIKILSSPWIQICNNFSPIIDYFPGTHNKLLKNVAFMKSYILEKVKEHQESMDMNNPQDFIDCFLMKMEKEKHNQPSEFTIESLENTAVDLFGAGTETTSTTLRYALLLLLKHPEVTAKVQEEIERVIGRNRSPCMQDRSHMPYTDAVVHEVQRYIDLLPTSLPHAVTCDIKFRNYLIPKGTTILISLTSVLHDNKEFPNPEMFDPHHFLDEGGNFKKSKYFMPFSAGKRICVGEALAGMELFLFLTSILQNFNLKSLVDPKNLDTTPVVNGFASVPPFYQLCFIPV

Mus musculus [15] = test: Reduction in liver weight in C57BL6J mouse model of high fat diet-induced obesity at 2 mg/kg, ip administered for 4 weeks by H and E staining assay; assay type: functional, organism-based
Mus musculus [16] = test: Anti-obesity activity in high fat diet-induced obesity C57BL6J mouse model assessed as reduction in lean mass at 5 mg/kg, ip administered for 4 weeks; assay type: functional, organism-based
[17] = target: T2, Inositol hexakisphosphate kinase 1 (Homo sapiens, UniProt Q92551); test: Inhibition of recombinant full length human IP6K1 in HCT-116 cells assessed as reduction in InsP7 level at 10 to 30 uM measured after 30 mins by toluidine blue staining based analysis; assay type: cell-based; conditions: dose 10-30 µM
Target sequence in this assay (Q92551 whole entry, looked up): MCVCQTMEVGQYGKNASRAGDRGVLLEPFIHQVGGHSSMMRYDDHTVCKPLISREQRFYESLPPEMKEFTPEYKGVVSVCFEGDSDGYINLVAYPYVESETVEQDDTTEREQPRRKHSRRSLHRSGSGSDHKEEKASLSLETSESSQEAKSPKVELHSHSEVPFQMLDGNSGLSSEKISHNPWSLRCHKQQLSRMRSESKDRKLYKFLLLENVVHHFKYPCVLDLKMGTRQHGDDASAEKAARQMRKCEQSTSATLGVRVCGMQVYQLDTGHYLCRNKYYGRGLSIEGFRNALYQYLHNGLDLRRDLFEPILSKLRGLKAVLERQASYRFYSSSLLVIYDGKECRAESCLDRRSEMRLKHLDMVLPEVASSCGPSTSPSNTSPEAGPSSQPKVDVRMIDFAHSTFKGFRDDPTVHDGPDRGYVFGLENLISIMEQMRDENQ

[18] = target: T2, Inositol hexakisphosphate kinase 1; test: Inhibition of recombinant full length human IP6K1 assessed as inorganic phosphate release measured after 30 mins by ADP-Glo Max assay
Target sequence in this assay (Q92551 whole entry): as the sequence (Q92551 whole entry, looked up) above

[19] = target: T1, Inositol hexakisphosphate kinase 3; test: Inhibition of recombinant full length human IP6K3 assessed as inorganic phosphate release measured after 2 hrs by ADP-Glo Max assay
[20] = target: T3, Inositol hexakisphosphate kinase 2 (Homo sapiens, UniProt Q9UHH9); test: Inhibition of recombinant full length human IP6K2 assessed as inorganic phosphate release measured after 30 mins by ADP-Glo Max assay
T3 sequence (Q9UHH9 whole entry): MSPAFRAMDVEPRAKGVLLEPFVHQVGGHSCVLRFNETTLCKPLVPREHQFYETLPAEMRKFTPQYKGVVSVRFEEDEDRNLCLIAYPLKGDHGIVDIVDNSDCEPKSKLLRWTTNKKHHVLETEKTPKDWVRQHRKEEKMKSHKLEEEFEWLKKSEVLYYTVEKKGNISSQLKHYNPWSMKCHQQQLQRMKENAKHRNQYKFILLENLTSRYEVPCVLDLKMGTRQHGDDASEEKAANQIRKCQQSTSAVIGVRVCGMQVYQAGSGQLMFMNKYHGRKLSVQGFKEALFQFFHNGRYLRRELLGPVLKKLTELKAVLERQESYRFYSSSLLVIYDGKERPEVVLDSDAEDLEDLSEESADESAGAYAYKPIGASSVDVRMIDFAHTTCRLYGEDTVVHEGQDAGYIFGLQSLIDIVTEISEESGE

[21] = target: T3, Inositol hexakisphosphate kinase 2; test: Inhibition of N-terminal 6His-tagged/TEV cleavage site fused recombinant human IP6K2 expressed in Escherichia coli assessed as inorganic phosphate release using InsP6 as substrate in presence of ATP measured after 60 to 120 mins by malachite green based colorimetric - DIPP1 coupled enzyme assay
Homo sapiens = species: Homo sapiens; test: Selectivity ratio of IC50 for N-terminal 6His-sumo-tagged recombinant human IP6K3 expressed in Escherichia coli assessed as inorganic phosphate release using InsP6 as substrate in presence of ATP measured to IC50 for N-terminal 6His-MBP-tagged recombinant human IP6K1 expressed in Escherichia coli assessed as inorganic phosphate release using InsP6 as substrate in presence of ATP
[22] = target: T2, Inositol hexakisphosphate kinase 1; test: Inhibition of N-terminal 6His-MBP-tagged recombinant human IP6K1 expressed in Escherichia coli assessed as inorganic phosphate release using InsP6 as substrate in presence of ATP measured after 60 to 120 mins by malachite green based colorimetric - DIPP1 coupled enzyme assay
Target sequence in this assay (Q92551 whole entry): as the sequence (Q92551 whole entry, looked up) above

With `O=C(O)c1ccc2noc(-c3cccc(C(F)(F)F)c3)c2c1` the IC50 [1] was 4620 nM.
`Cc1cccc(-c2onc3ccc(/C=C/C(=O)O)cc23)c1` gave an IC50 [1] of 3590 nM.
For `O=C(O)c1ccc2noc(-c3ccc(-c4ccccc4)cc3)c2c1`, the AUClast [2] was 2527 ng·h/mL, the inhibition [3] was “Active” and the Activity (Mus musculus [4]) was “Active”. For the same compound, the Activity (Mus musculus [5]) was “Active”, the Activity (Mus musculus [6]) was “Active” and the Activity (Mus musculus [7]) was “Active”. For the same compound, the AUClast [8] was 6054 ng·h/mL, the inhibition [9] was 31% and the Activity (Mus musculus [10]) was “Active”. The Activity (Mus musculus [11]) was “Active”, the Activity (Mus musculus [12]) was “Active” and the clearance [13] was 13.7 mL/min/kg. The Activity (Mus musculus [14]) was “Active”, the inhibition at 10 µM (CYP2C9) was 36% and the Activity (Mus musculus [15]) was “Active”. For the same compound, the Activity (Mus musculus [16]) was “Active”.
In the case of `O=C(O)c1ccc2noc(-c3ccc(Cc4ccccc4)cc3)c2c1`, the IC50 [1] is reported as 1290 nM.
With `O=C(O)c1ccc2c(c1)C1(CCN(C(=O)c3ccc(Cl)cc3)CC1)C(=O)N2` the inhibition [17] was “Active”, the IC50 [18] was 27 nM and the IC50 [19] was 8 nM. For the same compound, the IC50 [20] was 25 nM.
Work on `O=C(O)c1ccc2noc(-c3cccc(-c4ccccc4)c3)c2c1` yielded an IC50 [21] of 130 nM and an IC50 [1] of 840 nM.
For `O=C(O)c1ccc2noc(-c3ccc(N4CCCCC4)cc3)c2c1`, the IC50 [1] was 1790 nM.
`Cc1cc(C)cc(-c2onc3ccc(C(=O)O)cc23)c1` showed an IC50 [1] of 2440 nM.
`O=C(O)/C=C/c1ccc2noc(-c3ccc(OC(F)(F)F)cc3)c2c1` gave an IC50 [1] of 8370 nM.
`O=C(O)c1ccc2noc(-c3ccccc3)c2c1` showed an IC50 [1] of 2690 nM.
In the case of `O=C(O)c1ccc2noc(-c3cccc(Oc4ccccn4)c3)c2c1`, the IC50 [1] is reported as 10900 nM.
Compound `CN(C)C(=O)/C=C/c1ccc2noc(-c3ccccc3)c2c1` has an IC50 [1] of over 100000 nM and a Ratio IC50 (Homo sapiens) of over 3.4.
`O=C(O)/C=C/c1ccc2noc(-c3ccc(-c4ccccc4)cc3)c2c1` gave an IC50 [1] of 200 nM.
Compound `O=C(O)c1ccc2noc(-c3cccc(Oc4ccccc4)c3)c2c1` has an IC50 [1] of 850 nM.
With `CC(C)C(=O)Nc1ccc(-c2onc3ccc(C(=O)O)cc23)cc1` the IC50 [21] was 820 nM and the IC50 [1] was 210 nM.
In the case of `O=C(O)c1ccc2noc(-c3ccc(NC(=O)c4ccncn4)cc3)c2c1`, the IC50 [1] is reported as 430 nM.
`O=C(O)c1ccc2noc(-c3ccc(N4CCCC4=O)cc3)c2c1` showed an IC50 [1] of 2170 nM.
`O=C(O)/C=C/c1ccc2noc(-c3ccc(Oc4ccccc4)cc3)c2c1` gave an IC50 [1] of 760 nM.
Compound `O=C(O)c1ccc2noc(-c3ccc(NC(=O)C4CCCC4)cc3)c2c1` has an IC50 [1] of 240 nM.
In the case of `O=C(O)c1ccc2noc(-c3ccc(Oc4ncc(Cl)cc4Cl)cc3)c2c1`, the IC50 [1] is reported as 2250 nM, the IC50 [22] is reported as 430 nM and the Ratio IC50 (Homo sapiens) is reported as 5.2.
Compound `O=C(O)/C=C/c1ccc2c(-c3ccccc3)onc2c1` has a Ratio IC50 (Homo sapiens) of 3.6.
In the case of `O=[N+]([O-])c1ccc(CNc2nc(NCc3cccc(C(F)(F)F)c3)nc3[nH]cnc23)cc1`, the IC50 [21] is reported as 2000 nM, the IC50 [1] is reported as 14500 nM and the IC50 [22] is reported as 1000 nM.
Compound `Cc1cccc(-c2onc3ccc(C(=O)O)cc23)c1` has an IC50 [1] of 1410 nM.
For `O=C(O)c1ccc2noc(-c3cccc(NC(=O)C4CC4)c3)c2c1`, the IC50 [1] was 2810 nM.
Work on `O=C(O)c1ccc2noc(-c3ccc(-c4ccncc4)cc3)c2c1` yielded an IC50 [1] of 670 nM.
`CC(C)NC(=O)c1ccc(-c2onc3ccc(C(=O)O)cc23)cc1` gave an IC50 [21] of 350 nM and an IC50 [1] of 340 nM.
Work on `O=C(O)c1ccc2noc(-c3ccc(Oc4ccccc4)cc3)c2c1` yielded an IC50 [1] of 550 nM.
`O=C(O)c1ccc2noc(-c3cccc(Oc4ncc(Cl)cc4Cl)c3)c2c1` gave an IC50 [1] of 3090 nM.
Compound `O=C(O)c1ccc2noc(-c3ccc(NC(=O)c4ccccc4)cc3)c2c1` has an IC50 [1] of 200 nM.
